Each structure is given as a SMILES string. “And” between values parts separate entries of the source, which are not always exact repeats. Equal values may be shown once.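 Cells were grown in 96-well plates and exposed to each compound for 48 hours at five concentrations; endpoints were interpolated linearly between bracketing concentrations, or set to the highest concentration if not reached. GI50: concentration for 50% inhibition of growth. At the TGI there is no net growth.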 Where only a bound is given, the exact number is not on record here.

Assay in all cases: growth of human tumour cells (NCI), 48 h
Experiment [1] concerns HOP-62 NSCLC.
The test system of experiment [2] is OVCAR-3 ovarian.
Experiment [3] deals with CCRF-CEM leukemia.
Experiment [4] concerns SR leukemia.
The subject of experiment [5] is NCI-H23 lung.
The test system of experiment [6] is HCT-116 colon.
Experiment [7] deals with HOP-92 NSCLC.
Experiment [8] concerns A498 renal.
Experiment [9] relates to MOLT-4 leukemia.
For experiment [10], the system named is SK-OV-3 ovarian.

For the compound `O=C(c1ccccc1)C(CN1CCOCC1)c1ccccc1` (stereo not given), the GI50 in experiment [1] was 6.5 µM; in [2], 0.465 µM; in experiment [3], 0.283 µM; in experiment [4], 1.02 µM; in experiment [5], 2.79 µM; in experiment [6], 0.609 µM. Besides, the GI50 is 1.33 µM in experiment [7], 2.49 µM in experiment [8], 2.24 µM in experiment [9] and 5.18 µM in experiment [10]. Also, the TGI in [1] came to 19.7 µM; in experiment [2], 1.66 µM; in experiment [3], 1.19 µM; in experiment [4], 4.45 µM; in [5], 12.3 µM; in [6] it was 2.08 µM. Besides, the TGI in experiment [7] came to 2.87 µM; in experiment [8] it was 11.2 µM; in [9], 6.43 µM; in experiment [10], 17.9 µM.
As for `O=S(=O)(NCCNC/C=C/c1ccc(Br)cc1)c1cccc2cnccc12`, the GI50 in experiment [1] is 7.49 µM and 8.6 µM; in experiment [2] it was 12 µM and 14.2 µM; in experiment [3], 3.45 µM and 13.3 µM; in experiment [4], 13.6 µM; in experiment [5], 11.3 µM and 13.1 µM; in [6], 7.6 µM and 11.2 µM. In addition, the GI50 in experiment [7] was 1.59 µM and 2.8 µM; in [8], 8.86 µM and 11.8 µM; in [9], > 20.4 µM and 7.23 µM; in experiment [10], 7.26 µM and 11.7 µM. The TGI in [1] was 21.7 µM and 22.2 µM; in [2], 24.6 µM and 28.3 µM; in [3], 20.6 µM and 34.2 µM; in experiment [4], > 40.9 µM and 34.6 µM; in [5] it was 25.8 µM and 27.5 µM; in experiment [6], 22 µM and 24 µM. The TGI in [7] is 9.81 µM and 11.8 µM; in experiment [8], 23.8 µM and 25.1 µM; in experiment [9], > 45 µM and 27.7 µM; in [10] it was 21.1 µM and 25.1 µM.
On to `O=C1C=C(Br)c2c(-c3ccccc3)oc3cccc1c23`, for which the TGI in experiment [1] was > 100 µM; in experiment [2], > 100 µM; in [3], > 47.6 µM; in experiment [4] it was > 30.8 µM; in experiment [5], > 100 µM; in experiment [6], > 100 µM. The TGI was > 100 µM in [7], > 100 µM in [8], > 67.8 µM in [9] and > 100 µM in experiment [10].
In the case of `N/C(=N\N=C\c1ccc(-c2ccccc2)cc1)N[N+](=O)[O-]`, the GI50 is 2.64 µM in [1]; 1.67 µM in [2]; 3.1 µM in experiment [3]; 0.692 µM in experiment [4]; 9.2 µM in experiment [5]; 1.97 µM in experiment [6]. Moreover, the GI50 in [7] was 2.18 µM; in experiment [8], 0.418 µM; in [9] it was 5.76 µM; in experiment [10], 3.87 µM. For the same compound, the TGI in [1] was > 100 µM; in experiment [2] it was 9.5 µM; in experiment [3] it was > 100 µM; in experiment [4], > 100 µM; in experiment [5] it was > 100 µM; in experiment [6] it was > 100 µM. Besides, the TGI in [7] is > 100 µM; in [8] it was 7.58 µM; in [9], > 100 µM; in experiment [10], > 100 µM.
`C[C@]12CC[C@H]3[C@@H](CCC4=CC(=O)CC[C@@H]43)[C@@H]1CC[C@@H]2OC(=O)CCc1ccccc1`: the GI50 in experiment [1] was 20.5 µM; in experiment [2], 15.8 µM; in experiment [3], 17.2 µM; in experiment [4], 11.2 µM; in experiment [5], 19.9 µM; in experiment [6] it was 19.3 µM. Moreover, the GI50 is 20.1 µM in experiment [7], 16.2 µM in experiment [8], 17.5 µM in experiment [9] and 44.1 µM in experiment [10]. Moreover, the TGI was 39.6 µM in experiment [1]; 30 µM in [2]; 43.5 µM in experiment [3]; > 53.4 µM in experiment [4]; 44.1 µM in [5]; 43.9 µM in experiment [6]. The TGI in experiment [7] is 64.4 µM; in [8], 30.8 µM; in experiment [9] it was 49.6 µM; in [10], > 100 µM.
For the compound `CC(CN1CCN(CCOCCO)CC1)CN1c2ccccc2Sc2ccc(Cl)cc21` (stereo not given), the GI50 in experiment [1] is 3.52 µM; in experiment [2], 3.62 µM; in experiment [3], 2.68 µM; in experiment [4] it was 3.58 µM; in [5], 10.8 µM; in experiment [6], 2.03 µM. Moreover, the GI50 is 1.01 µM in experiment [7], 1.78 µM in experiment [8], 2.49 µM in experiment [9] and 8.87 µM in experiment [10]. Moreover, the TGI in experiment [1] is 13.4 µM; in experiment [2] it was 12.7 µM; in [3], 8.74 µM; in experiment [4], 16.5 µM; in experiment [5], 24.2 µM; in experiment [6], 4.35 µM. Moreover, the TGI in experiment [7] is 4.63 µM; in [8] it was 5.08 µM; in experiment [9], 6.54 µM; in experiment [10], 21.8 µM.
Regarding `N#CC(C(=O)CCC(=O)Nc1cccc(Cl)c1)c1ccccc1` (stereo not given), the TGI in [1], in [2], in experiment [3], in experiment [4], in experiment [5] and in [6] was > 100 µM each time. Further, the TGI in experiment [7], in [8], in [9] and in [10] was > 100 µM throughout.
In the case of `CN(C)c1ccc(/C=C\c2cccc[n+]2C)cc1`, the GI50 is 5.83 µM in [1]; 3.3 µM in experiment [2]; 4.54 µM in experiment [3]; 24.8 µM in experiment [4]; 4.69 µM in experiment [5]; 4.16 µM in experiment [6]. Moreover, the GI50 was 4.85 µM in [7], 2.53 µM in [8], 38.4 µM in experiment [9] and 4.85 µM in [10]. The TGI in experiment [1] was 90.7 µM; in experiment [2] it was 30.1 µM; in experiment [3] it was > 100 µM; in [4], > 100 µM; in experiment [5] it was > 100 µM; in experiment [6], > 100 µM. The TGI is 32.8 µM in experiment [7], 33.7 µM in experiment [8], > 100 µM in experiment [9] and 52 µM in experiment [10].

The values are drawn from PubChem BioAssay (NCI).
